In patent US8673914B2, “Use of phosphodiesterase inhibitors for treating multidrug resistance” (St. John's University, priority 2011, dated 2014):
Like-named read-outs stand apart in the source and are kept apart here.

Assays:
HEK293/pcDNA3.1 = test: MTT cytotoxicity/reversal assay (Example 1); format: cell-based; conditions: for fold reversal, vincristine: alone
Method: (§1) The KB-C2 and KB-3-1 were kindly provided by Dr. Akiyama (Kagoshima University, Japan). HEK293-pcDNA3.1 and wild-type HEK/ABCG2 transfected cells were established by selection with G418 after transfecting HEK293 with either (1) empty pcDNA3.1 vector or (2) pcDNA3.1 vector containing full length of ABCG2 coding arginine (R) at amino acid position 482, and were then cultured in a medium with 2 mg/ml of G418 (ABCG2-482-R2 cells). Similarly, the HEK/MRP1 (ABCC1) and HEK/ABCB1 cells were generated by transfecting the HEK293 cells with either the MRP1 expression vector or the ABCB1 expression vector. All of the cell lines were grown in Dulbecco's modified Eagle's medium (DMEM) supplemented with 10% bovine serum, 100 units/ml penicillin, and […] streptomycin in a humidified incubator containing 5% CO2 at 37° C.
(§2) The MTT assay was used to assess cytotoxicity. The cultured cells were harvested with trypsin and resuspended in a final concentration of 4×10^3 cells/well for KB-3-1; 7.5×10^3 cells/well for KB-C2; and 8×10^3 for all of the other cell lines used in this study. Cells were seeded evenly in 96-well multiplates. […] After 68 h of incubation, 20 μl of the MTT solution (4 mg/ml) was added to each well, and the plate was further incubated for 4 h at 37° C., allowing viable cells to convert the yellow-colored MTT into dark-blue formazan crystals. Subsequently, the medium was discarded, and 100 μl of DMSO was added into each well to dissolve the formazan crystals, generating purple color. The absorbance was determined at 570 nm by an OPSYS Microplate Reader from DYNEX Technologies, Inc. (Chantilly, Va.). […] The degree of the reversal of multidrug resistance (MDR) was calculated by dividing the IC50 of an anticancer drug, e.g., an antineoplastic or chemotherapeutic drug (agent, compound), in a cell type in the absence of a reversal agent by the IC50 of the anticancer drug in the same cell type in the presence of the reversal agent. The IC50 values were calculated from survival curves using the Bliss method.

[1] = MTT cytotoxicity/reversal assay (Example 1); conditions: human
Method: (§3) The KB-C2 and KB-3-1 were kindly provided by Dr. Akiyama (Kagoshima University, Japan). […] Similarly, the HEK/MRP1 (ABCC1) and HEK/ABCB1 cells were generated by transfecting the HEK293 cells with either the MRP1 expression vector or the ABCB1 expression vector. All of the cell lines were grown in Dulbecco's modified Eagle's medium (DMEM) supplemented with 10% bovine serum, 100 units/ml penicillin, and […] streptomycin in a humidified incubator containing 5% CO2 at 37° C.
as §2

HEK/ABCB1 (ABCB1) = test: MTT cytotoxicity/reversal assay (Example 1); conditions: HEK/ABCB1; alone
Method: as §3, §2

[2] = MTT cytotoxicity/reversal assay (Example 1); format: cell-based; conditions: human; HEK/MRP1; alone; read-out: IC50 of vincristine
Method: as §3, §2

HEK/MRP1 (ABCC1) = test: MTT cytotoxicity/reversal assay (Example 1); format: cell-based; conditions: alone
Method: as §3, §2

KB-3-1 cells = test: [^3H]-paclitaxel accumulation (Example 2); format: cell-based, human; conditions: parental KB-3-1
Method: (§4) After washing 3 times with ice-cold PBS, the cells were trypsinized and lysed in 10 mM lysis buffer (pH 7.4, containing 1% Triton X-100 and 0.2% SDS). Each sample was placed in scintillation fluid and radioactivity was measured in a Packard TRI-CARB 1900CA liquid scintillation analyzer from Packard Instrument Company, Inc.

[3] = test system: any of the cell lines used; test: MTT assay, sildenafil alone; format: cell-based; conditions: concentrations of up to 50 μM
Method: Cells in 96-well plates were preincubated with or without the reversal agents for 1 h and then different concentrations of chemotherapeutic drugs were added into designated wells. After 68 h of incubation, MTT solution (4 mg/mL) was added to each well, and the plate was further incubated for 4 h, allowing viable cells to change the yellow-colored MTT into dark-blue formazan crystals. Subsequently the medium was discarded, and […] of DMSO was added into each well to dissolve the formazan crystals. The absorbance was determined at 570 nm by an OPSYS MR Microplate Reader from DYNEX Technologies, Inc.

[4] = test system: KB-C2 and KB-V1 cells (ABCB1); test: [^3H]-paclitaxel accumulation (Example 2); format: cell-based, human; conditions: 10 μM
Method: as §4, with “Cells in 24-well plates were preincubated with or without the reversal agents for 1 h at 37° C., then incubated with 0.1 μM [^3H]-paclitaxel or 0.2 μM [^3H]-mitoxantrone for 2 h in the presence or absence of the reversal agents at 37° C. After” for “After”

[5] = test system: ABCG2-overexpressing cell lines; test: [^3H]-mitoxantrone accumulation; format: cell-based; conditions: 10 or 50 μM
Method: as §4, with “Cells in 24-well plates were preincubated with or without the reversal agents for 1 h at 37° C., then incubated with 0.1 μM [^3H]-paclitaxel or 0.2 μM [^3H]-mitoxantrone for 2 h in the presence or absence of the reversal agents at 37° C. After” for “After”

parental cells = test: [^3H]-mitoxantrone accumulation; format: cell-based
Method: as §4

[6] = test system: cells expressing wild-type or mutant ABCG2; test: BODIPY-prazosin flow cytometric assay; format: cell-based; conditions: 50 μM; weaker than FTC at […]
Method: Flow cytometric assays were carried out as follows. […] Cells were then washed once in cold complete medium and then incubated for another 1 h at 37° C. in substrate-free media with or without the same described concentrations of the inhibitors to generate the efflux histograms. Subsequently, cells were washed twice with cold DPBS (Dulbecco's PBS) and placed on ice in a dark environment until ready for analysis. […] For all samples, at least 10,000 events were collected. Cell debris was eliminated by gating on forward versus side scatter, and dead cells were excluded on the basis of propidium iodide staining.

ABCB1 = biological target: T1, ABCB1 (Homo sapiens, UniProt P08183); test: Vi-sensitive ATPase assay (Example 2); format: biochemical; conditions: read-out: concentration required for 50% stimulation of ATPase activity
T1 construct: made in house; host or cells: High Five insect cells (membrane vesicles / crude membranes)
T1 sequence (P08183 whole entry): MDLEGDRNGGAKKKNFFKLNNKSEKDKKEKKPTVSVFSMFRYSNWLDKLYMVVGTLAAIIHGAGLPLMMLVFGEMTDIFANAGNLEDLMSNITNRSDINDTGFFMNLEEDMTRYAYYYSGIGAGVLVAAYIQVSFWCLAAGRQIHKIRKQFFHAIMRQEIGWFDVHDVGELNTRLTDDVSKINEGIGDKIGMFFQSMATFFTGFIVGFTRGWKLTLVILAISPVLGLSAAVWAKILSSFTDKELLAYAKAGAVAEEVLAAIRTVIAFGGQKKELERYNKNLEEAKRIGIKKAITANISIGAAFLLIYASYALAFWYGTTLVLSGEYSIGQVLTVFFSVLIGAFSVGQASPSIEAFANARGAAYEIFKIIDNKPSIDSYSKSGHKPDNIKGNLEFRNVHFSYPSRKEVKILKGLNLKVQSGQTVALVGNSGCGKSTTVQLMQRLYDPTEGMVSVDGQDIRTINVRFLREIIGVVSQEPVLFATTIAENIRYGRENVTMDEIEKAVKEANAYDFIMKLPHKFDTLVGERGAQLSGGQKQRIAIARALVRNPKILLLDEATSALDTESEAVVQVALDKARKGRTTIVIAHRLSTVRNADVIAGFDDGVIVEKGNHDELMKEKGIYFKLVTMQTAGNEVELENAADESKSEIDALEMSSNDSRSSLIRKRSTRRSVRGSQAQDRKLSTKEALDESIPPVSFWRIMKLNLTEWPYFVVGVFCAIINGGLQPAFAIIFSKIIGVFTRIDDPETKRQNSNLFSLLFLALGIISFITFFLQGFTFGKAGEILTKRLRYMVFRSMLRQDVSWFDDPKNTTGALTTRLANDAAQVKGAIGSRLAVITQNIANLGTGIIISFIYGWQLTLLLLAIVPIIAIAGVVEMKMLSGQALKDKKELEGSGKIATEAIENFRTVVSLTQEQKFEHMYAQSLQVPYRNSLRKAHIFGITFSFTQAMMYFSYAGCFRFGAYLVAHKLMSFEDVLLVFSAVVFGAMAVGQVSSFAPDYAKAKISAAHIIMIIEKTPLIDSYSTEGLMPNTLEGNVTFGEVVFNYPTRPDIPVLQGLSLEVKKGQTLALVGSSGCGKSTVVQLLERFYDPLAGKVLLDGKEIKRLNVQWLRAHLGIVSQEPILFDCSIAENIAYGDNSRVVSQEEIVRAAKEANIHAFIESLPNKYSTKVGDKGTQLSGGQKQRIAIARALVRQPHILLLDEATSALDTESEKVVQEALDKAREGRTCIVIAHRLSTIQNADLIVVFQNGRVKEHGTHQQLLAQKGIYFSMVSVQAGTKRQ
Method: (§5) The vanadate (Vi)-sensitive ATPase activity of ABCB1 or ABCG2 in the membrane vesicles of HIGH FIVE™ insect cells was measured as described in Ambudkar et al., supra. The membrane vesicles (100 μg of protein/mL) were incubated in ATPase assay buffer (50 mM MES, pH 6.8, 50 mM KCl, 5 mM sodium azide, 2 mM EGTA, 2 mM dithiothreitol, 1 mM ouabain, and 10 mM MgCl2) with or without 0.3 mM vanadate at 37° C. for 5 min, and then incubated with different concentrations of drugs at 37° C. for 3 min. The ATPase reaction was […] by the addition of 5 mM Mg-ATP. After incubating at 37° C. for 20 min, the reactions were stopped by adding 0.1 mL of 5% SDS solution. The liberated inorganic phosphate was measured as described in Shukla et al. (2006) Biochemistry 45:8940-51.

ABCG2 [7] = biological target: T2, ABCG2 (Homo sapiens, UniProt Q9UNQ0); test: Vi-sensitive ATPase assay (Example 2); format: biochemical; conditions: read-out: concentration required for 50% stimulation of ATPase activity
T2 sequence (Q9UNQ0 whole entry): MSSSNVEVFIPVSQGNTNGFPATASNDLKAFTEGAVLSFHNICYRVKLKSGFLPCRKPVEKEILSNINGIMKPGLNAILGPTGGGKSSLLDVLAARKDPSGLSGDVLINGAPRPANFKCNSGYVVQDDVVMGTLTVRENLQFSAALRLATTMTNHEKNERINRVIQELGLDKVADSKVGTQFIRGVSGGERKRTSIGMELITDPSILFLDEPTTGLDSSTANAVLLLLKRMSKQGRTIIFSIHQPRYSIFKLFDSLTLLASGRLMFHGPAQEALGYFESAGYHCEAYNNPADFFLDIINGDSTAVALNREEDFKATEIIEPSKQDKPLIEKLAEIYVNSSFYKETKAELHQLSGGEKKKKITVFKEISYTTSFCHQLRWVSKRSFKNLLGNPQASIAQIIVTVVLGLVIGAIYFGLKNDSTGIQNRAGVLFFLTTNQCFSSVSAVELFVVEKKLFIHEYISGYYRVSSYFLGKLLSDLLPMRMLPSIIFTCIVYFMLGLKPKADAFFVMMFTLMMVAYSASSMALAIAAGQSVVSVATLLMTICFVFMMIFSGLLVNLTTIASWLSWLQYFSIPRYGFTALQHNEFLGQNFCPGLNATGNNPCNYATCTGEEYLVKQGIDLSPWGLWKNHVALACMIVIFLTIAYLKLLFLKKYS
Method: as §5

KB-C2 xenografts = test: Mouse tumor xenografts; format: in vivo, mice; conditions: sildenafil 75 mg/kg p.o. + paclitaxel 18 mg/kg i.p. vs paclitaxel alone
Excerpt: Six-to-eight-week old male athymic NCR nude mice from Taconic (Hudson, N.Y.) were used for all xenografts. The mice were provided with sterilized food and water. The animal protocol was reviewed and approved by the Institutional Animal Care and Use Committee at St. John's University. […] When the tumors reached 0.5 cm, the mice were randomized into four groups, six mice per group: […] […] Mice were euthanized when the tumor weight exceeded 1 gram in the control group, and the tumors were excised and weighed.

HEK/MRP7 cells [8] = test: [^3H]-paclitaxel accumulation (Example 4); format: cell-based; conditions: 5 μM, 2 h
Method: (§6) The effect of PDE5 inhibitors on the intracellular accumulation of paclitaxel in HEK293-pcDNA3.1 and HEK/MRP7 cells was measured using [^3H]-paclitaxel. […] For efflux studies, the cells were treated the same as in the drug accumulation study, and then washed three times with ice-cold PBS, and suspended in fresh medium with or without PDE5 inhibitors. Aliquots were evenly collected at various time points (0, 30, 60, and 120 min). Samples from both accumulation and efflux experiments were washed with ice-cold PBS three times and placed in scintillation fluid, and the radioactivity was measured in a Packard TRI-CARB® 1900CA liquid scintillation analyzer from Packard Instrument Company, Inc. (Downers Grove, Ill.).

HEK/MRP7 cells [9] = test: [^3H]-paclitaxel efflux (Example 4); format: cell-based; conditions: 5 μM PDE5 inhibitor
Method: as §6

[10] = test system: MRP7 localization in HEK/MRP7 cells; test: Immunofluorescence of MRP7; format: cell-based; conditions: 5 μM; 72 h
Method: HEK/MRP7 cells (1×10^4) were seeded in 24 well plates and cultured overnight. […] Cells were washed with PBS and fixed with 4% paraformaldehyde for 15 min at room temperature and then rinsed with PBS three times. Nonspecific reaction was blocked with 1% BSA for 1 h at room temperature. A polyclonal antibody D19 against MRP7 (1:200) was added and incubated overnight. […] DAPI was used for nuclear staining. Immunofluorescent images were taken with an inverted microscope (model IX70; Olympus, Center Valley, Pa.) with IX-FLA fluorescence and CCD camera.

ABCG2-482-R2 (ABCG2) = test: MTT cytotoxicity/reversal assay (Example 1); conditions: +10 μM reversal agent
Method: as §1, §2

[11] = In vitro transport assay, membrane vesicles; format: biochemical; conditions: HEK293/pcDNA3.1 vesicles
Method: Transport assays were carried out using the rapid filtration method as described in Chen et al. (2003) Cancer Res. 63:4048-54. […] Reactions were stopped by the addition of 3 mL of ice-cold stop solution (0.25 M sucrose, 100 mM NaCl, and 10 mM Tris-HCl, pH 7.4). During the rapid filtration step, samples were passed through 0.22 μm GVWP filters (Millipore) presoaked in the stop solution. The filters were washed three times with 3 mL of ice-cold stop solution. Radioactivity was measured by liquid scintillation counting.

ABCG2 [12] = biological target: T2, ABCG2; test: Photoaffinity labeling with [^125I]-IAAP (Example 2); format: binding; set-up: endogenous in cells; host or cells: MCF7/FLV1000 (MCF-7/Flv1000) crude membranes; conditions: 10 μM
Method: The photoaffinity labeling of ABCB1 and ABCG2 with [^125I]-IAAP was conducted as described in Sauna et al., supra. The crude membranes from HIGH FIVE™ insect cells expressing ABCB1 and MCF7/FLV1000 cells expressing R482 ABCG2 (50 μg of protein) were incubated at room temperature with different concentrations of drugs in 50 mM Tris-HCl (pH 7.5) with [^125I]-IAAP (5-7 nM) for 5 min under subdued light. […] ABCB1 and ABCG2 were immunoprecipitated using BXP-21 antibodies as described in Shukla et al., supra. Both ABCB1 and ABCG2 samples were subjected to SDS-PAGE in a 7% Trisacetate NuPAGE gel, the gel was dried, and exposed to Bio-Max MR film (Eastman Kodak Co.) at −70° C. for 8 to 12 h. The radioactivity incorporated into the ABCB1 or ABCG2 band was quantified using the STORM 860 Phosphorlmager System and ImageQuaNT (Molecular Dynamics).

CC[C@]1(O)C[C@H]2CN(CCc3c([nH]c4ccccc34)[C@@](C(=O)OC)(c3cc4c(cc3OC)N(C=O)[C@H]3[C@@](O)(C(=O)OC)[C@H](OC(C)=O)[C@]5(CC)C=CCN6CC[C@]43[C@@H]65)C2)C1 [Vincristine, vincristine]
fold reversal, vincristine (HEK293/pcDNA3.1; HEK293/pcDNA3.1 (Table 6)): (1.00) | fold reversal, vincristine (HEK293/pcDNA3.1; HEK293/pcDNA3.1): (1.00) | IC50 at 68 h [1]: 170 ± 12.9 µM | fold reversal, vincristine (HEK/ABCB1 (ABCB1)): (1.00) | IC50 at 68 h [2]: 0.0106 ± 0.0022 µM | fold reversal, vincristine (HEK/MRP1 (ABCC1)): (1.00)

COc1ccc(CCN(C)CCCC(C#N)(c2ccc(OC)c(OC)c2)C(C)C)cc1OC (centres unmarked) [Verapamil, verapamil]
intracellular levels of [^3H]-paclitaxel (KB-3-1 cells): Neither sildenafil nor verapamil altered the intracellular levels

CCCc1nn(C)c2c(=O)nc(-c3cc(S(=O)(=O)N4CCN(C)CC4)ccc3OCC)[nH]c12 [Sildenafil, sildenafil]
growth inhibition by sildenafil alone [3]: did not inhibit the growth of any of the cell lines used | intracellular level of [^3H]-paclitaxel [4]: significantly increased the intracellular level | intracellular levels of [^3H]-paclitaxel (KB-3-1 cells): Neither sildenafil nor verapamil altered the intracellular levels | intracellular [^3H]-mitoxantrone levels [5]: elevated intracellular [^3H]-mitoxantrone levels | intracellular levels of [^3H]-mitoxantrone (parental cells): Neither sildenafil nor FTC affected the intracellular levels | accumulation of BODIPY-prazosin [6]: enhanced the accumulation of BODIPY-prazosin | EC50 (ABCB1): 5 to 10 µM | EC50 (ABCG2 [7]): 0.25 to 0.5 µM | tumor weight and volume (KB-C2 xenografts): significant reduction in tumor weight and volume | increase of intracellular accumulation of [^3H]-paclitaxel (HEK/MRP7 cells [8]): 3.3 fold | percentage of intracellular [^3H]-paclitaxel (HEK/MRP7 cells [9]; 30 min): 90.62% | percentage of intracellular [^3H]-paclitaxel (HEK/MRP7 cells [9]; 60 min): 82.14% | percentage of intracellular [^3H]-paclitaxel (HEK/MRP7 cells [9]; 120 min): 62.35% | MRP7 protein localization in plasma membranes [10]: no alteration of MRP7 protein localization

COc1ccc2c3c([nH]c2c1)[C@H](C=C(C)C)N1C(=O)[C@@H]2CCCN2C(=O)[C@@H]1C3 [FTC, Fumitremorgin C]
fold reversal, SN-38 (HEK293/pcDNA3.1; HEK293/pcDNA3.1, +10 μM reversal agent): (1.13) | fold reversal, SN-38 (ABCG2-482-R2 (ABCG2)): (3.84) | intracellular levels of [^3H]-mitoxantrone (parental cells): Neither sildenafil nor FTC affected the intracellular levels | uptake rates of methotrexate and E217βG [11]: moderately decreased the uptake rates | inhibition of [^125I]-IAAP photolabeling (ABCG2 [12]): about 40%
